{
  "source": "patent US10716831B2",
  "about": "“Methods for inhibiting infectious peritonitis” (priority 2014, dated 2020)",
  "origin": "cited, not measured here",
  "molecules": {"B1": {"name": "recombinant murine GM-CSF: recombinant murine GM-CSF used in rat and mouse peritonitis studies (protein, UniProt P01587 18-141, looked up)", "Granulocyte-macrophage …": "APTRSPITVTRPWKHVEAIKEALNLLDDMPVTLNEEVEVVSNEFSFKKLTCVQTRLKIFEQGLRGNFTKLKGALNMTASYYQTYCPPTPETDCETQVTTYADFIDSLKTFLTDIPFECKKPGQK"}},
  "key": {"[1]": {"conditions": "in vivo"}, "[2]": {"test_system": "Pseudomonas aeruginosa", "conditions": "controlled clinical trials, orally or intravenously administered, maximum"}, "[3]": {"experiment": "not given", "remark": "listed apart in the source"}, "[4]": {"test_system": "polymorphonuclear leukocytes"}, "[5]": {"test_system": "strains of organisms from the susceptible genera"}, "[6]": {"test_system": "infectious peritonitis", "conditions": "combination with imipenem; Pachón-Ibáñez et al 2011"}, "[7]": {"test_system": "Staphylococcus, Streptococcus, Neisseria, Escherichia, Proteus, Serratia, Salmonella, Shigella, Pseudomonas, Haemophilus and Vibrio", "conditions": "aerobic genera"}, "[8]": {"test_system": "Klebsiella and Enterobacter spp."}, "[9]": {"test_system": "Peptostreptococcus (including Peptoniphilus, Finegoldia and Anaerococcus) and Fusobacterium", "conditions": "anaerobic genera"}, "[10]": {"test_system": "bacteria of the B. fragilis group"}, "[11]": {"conditions": "intraperitoneal compared with intravenous administration; Tobudic et al 2012"}, "[12]": {"test_system": "resistant bacterial strains", "conditions": "controlled clinical trials, orally or intravenously administered; overall"}, "[13]": {"test_system": "monocytes", "conditions": "in vitro; Volk et al 1991"}, "[14]": {"test_system": "cecal ligation and puncture", "conditions": "mice, subcutaneous injection; Gennari et al 1994"}, "[15]": {"test_system": "bacterial peritonitis", "conditions": "mice, intraperitoneal for 5 days; Austin et al 1995"}, "[16]": {"test_system": "non-traumatic generalized abdominal sepsis", "conditions": "subcutaneous, with systemic antibiotics; Orozco et al 2006"}, "[17]": {"conditions": "third and last day of treatment"}, "[18]": {"test_system": "peritoneal macrophages", "conditions": "intraperitoneal; Selgas et al 1996"}, "[19]": {"test_system": "peritonitis induced by cecal ligation and puncture", "conditions": "rats, systemic; Toda et al 1994"}, "[20]": {"test_system": "fecal peritonitis", "conditions": "mice, prophylactic administration; Barsig et al 1996"}},
  "data": [
    {"molecule": "C[C@@H]1O[C@@H]1P(=O)(O)O", "note": "[Fosfomycin disodium]", "values": [
      {"measurement": "solubility in water", "result": "highly soluble in water"},
      {"measurement": "pH of 5% solution", "result": "9.0-10.5"},
      {"measurement": "local or oral tolerability", "setting": "[1]", "result": "locally irritant if un-neutralized"}
    ]},
    {"molecule": "C[C@@H]1O[C@@H]1P(=O)(O)O.NC(CO)(CO)CO", "note": "[Fosfomycin trometamol]", "values": [
      {"measurement": "solubility in water", "result": "highly soluble in water"},
      {"measurement": "pH of 5% solution", "result": "3.5-5.5"},
      {"measurement": "local or oral tolerability", "setting": "[1]", "result": "well tolerated when given orally"}
    ]},
    {"molecule": "C[C@@H]1O[C@@H]1P(=O)(O)O", "note": "[fosfomycin, [(2R,3S)-3-methyloxiran-2-yl]phosphonic acid]", "values": [
      {"measurement": "appearance of resistant bacterial strains", "setting": "[2]", "result": 15, "unit": "%"},
      {"measurement": "eosinophilia", "setting": "[3]; Gobernado 2003", "result": 0.2, "unit": "%"},
      {"measurement": "transient rashes (allergy)", "setting": "[3]; Gobernado 2003", "result": "0.3 % of cases"},
      {"measurement": "transiently raised liver enzymes", "setting": "[3]; Gobernado 2003", "result": "0.3 % of cases"},
      {"measurement": "toxicity to mammalian cells and organs", "setting": "[3]; fosfomycin disodium at intravenous doses of up to 0.5 g/kg/day in human patients", "result": "remarkably non-toxic"},
      {"measurement": "concentration in polymorphonuclear leukocytes relative to extracellular fluid", "setting": "[4]", "result": "twice those of the extracellular fluid"},
      {"measurement": "tested strains showing synergistic effect", "setting": "[5]; early studies, various antibiotic combinations", "result": "70-100%"},
      {"measurement": "synergy rates", "setting": "[5]; subsequent more extensive studies", "result": "36-74%"},
      {"measurement": "synergy and in-vivo efficacy with imipenem", "setting": "[6]", "result": "showed synergy and high in-vivo efficacy"},
      {"measurement": "antibacterial activity", "setting": "[7]", "result": "highly active"},
      {"measurement": "antibacterial activity", "setting": "[8]", "result": "active"},
      {"measurement": "antibacterial activity", "setting": "[9]", "result": "active"},
      {"measurement": "antibacterial activity", "setting": "[10]", "result": "not against"},
      {"measurement": "intraperitoneal levels", "setting": "[11]", "result": "superior intraperitoneal levels"},
      {"measurement": "appearance of resistant bacterial strains", "setting": "[12]", "result": 3.0, "unit": "%"}
    ]},
    {"molecule": "GM-CSF: cytokine of the colony-stimulating factor family; mature human protein SEQ ID NO: 2", "values": [
      {"measurement": "loss of HLA-DR antigen expression to <20%", "setting": "[13]", "result": "reversed"},
      {"measurement": "mortality", "setting": "[14]", "result": "significantly reduced"},
      {"measurement": "survival", "setting": "[15]", "result": "improved survival"},
      {"measurement": "rate of infectious complications and length of hospitalization", "setting": "[16]", "result": "reduced"},
      {"measurement": "minor flu-like symptoms", "setting": "[17]", "result": "2 of 8"},
      {"measurement": "peritoneal macrophage numbers", "setting": "[18]", "result": "large increase"},
      {"measurement": "peritoneal transport of water or solutes", "setting": "[18]", "result": "did not affect"}
    ]},
    {"molecule": "B1", "values": [
      {"measurement": "survival rate", "setting": "[19]", "result": "did not improve"},
      {"measurement": "leukocyte numbers and protection", "setting": "[20]", "result": "neither augmented leukocyte numbers nor protected mice"}
    ]}
  ]
}
